Reference: PMC3968014, “Design and Synthesis of a Library of Lead-Like 2,4-Bisheterocyclic Substituted Thiophenes as Selective Dyrk/Clk Inhibitors” (PLoS ONE, 2014)
Several values for one entry are separate records, joined by “and”; a condition that tells them apart may be missing. Equal entries are not always repeated. Where two headings read alike, the source gives them in different places.

Experiments:
[1] = target: T1, Ck1δ (Homo sapiens, UniProt P48730); test: Selectivity panel Ck1δ; type: biochemical; conditions: 5 µM inhibitor
T1 construct: purchased Life Technologies (Invitrogen SelectScreen); Dyrk1A, Dyrk2 and CK2α in-house or gifts

[2] = target: PIM1 (Homo sapiens, UniProt P11309); test: Selectivity panel PIM1; type: biochemical; conditions: for inhibition at 5 µM: 5 µM inhibitor
[3] = target: T2, EGFR (Homo sapiens, UniProt P00533); test: Selectivity panel EGFR; type: biochemical; conditions: 5 µM inhibitor
T2 construct: purchased Life Technologies (Invitrogen SelectScreen); Dyrk1A, Dyrk2 and CK2α in-house or gifts

[4] = target: T3, TrkB (Homo sapiens, UniProt Q16620); test: Selectivity panel TrkB; type: biochemical; conditions: 5 µM inhibitor
T3 construct: purchased Life Technologies (Invitrogen SelectScreen); Dyrk1A, Dyrk2 and CK2α in-house or gifts

[5] = target: T4, Clk3 (Homo sapiens, UniProt P49761); test: Selectivity panel Clk3; type: biochemical; conditions: 5 µM inhibitor
T4 construct: purchased Life Technologies (Invitrogen SelectScreen); Dyrk1A, Dyrk2 and CK2α in-house or gifts

[6] = target: T5, GSK3β (Homo sapiens, UniProt P49841); test: Selectivity panel GSK3β; type: biochemical; conditions: 5 µM inhibitor
T5 construct: purchased Life Technologies (Invitrogen SelectScreen); Dyrk1A, Dyrk2 and CK2α in-house or gifts

[7] = target: T6, MST1 (STK4) (Homo sapiens, UniProt Q13043); test: Selectivity panel MST1; type: biochemical; conditions: 5 µM inhibitor
T6 construct: purchased Life Technologies (Invitrogen SelectScreen); Dyrk1A, Dyrk2 and CK2α in-house or gifts
T6 sequence (Q13043 1-487): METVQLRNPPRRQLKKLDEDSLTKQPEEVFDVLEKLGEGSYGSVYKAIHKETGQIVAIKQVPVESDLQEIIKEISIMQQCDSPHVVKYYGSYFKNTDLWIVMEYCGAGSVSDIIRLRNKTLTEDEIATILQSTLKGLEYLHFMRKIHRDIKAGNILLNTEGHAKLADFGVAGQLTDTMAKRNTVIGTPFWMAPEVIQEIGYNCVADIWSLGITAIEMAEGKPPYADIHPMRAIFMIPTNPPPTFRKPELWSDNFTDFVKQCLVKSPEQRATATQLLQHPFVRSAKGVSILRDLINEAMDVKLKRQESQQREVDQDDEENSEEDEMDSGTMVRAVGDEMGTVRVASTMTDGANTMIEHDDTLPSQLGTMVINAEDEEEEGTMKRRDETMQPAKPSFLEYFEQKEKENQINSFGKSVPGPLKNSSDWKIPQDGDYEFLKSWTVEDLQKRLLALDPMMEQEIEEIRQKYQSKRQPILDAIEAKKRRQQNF

[8] = Metabolic Stability Assay; conditions: male, Sprague-Dawley, rat, liver microsomes
[9] = target: Clk1 (Homo sapiens, UniProt P49759); test: Clk1 kinase assay (RS repeat peptide); type: biochemical; conditions: for inhibition at 5 µM: read-out: % inhibition Clk1; for IC50: 100 µM ATP
[10] = target: T7, ROS (Homo sapiens, UniProt P08922); test: Selectivity panel ROS; type: biochemical; conditions: 5 µM inhibitor
T7 construct: purchased Life Technologies (Invitrogen SelectScreen); Dyrk1A, Dyrk2 and CK2α in-house or gifts

[11] = target: T8, CDK5 (Homo sapiens, UniProt Q00535); test: Selectivity panel CDK5; type: biochemical; conditions: 5 µM inhibitor
T8 construct: purchased Life Technologies (Invitrogen SelectScreen); Dyrk1A, Dyrk2 and CK2α in-house or gifts

[12] = target: T9, HIPK1 (Homo sapiens, UniProt Q86Z02); test: Selectivity panel HIPK1; type: biochemical; conditions: 5 µM inhibitor
T9 construct: purchased Life Technologies (Invitrogen SelectScreen); Dyrk1A, Dyrk2 and CK2α in-house or gifts

[13] = target: T10, Dyrk2 (Homo sapiens, UniProt Q92630); test: Dyrk2 kinase assay (32P-ATP, Woodtide); type: biochemical; conditions: for IC50: 100 µM ATP, read-out: IC50 Dyrk2; for inhibition at 5 µM: read-out: percentage of inhibition Dyrk2
T10 construct: made in house; host or cells: Escherichia coli BL21(DE3) with pRARE; plasmid pGEX-2TK-Dyrk2 (gift from W. Becker, Aachen)
T10 sequence (Q92630 1-601): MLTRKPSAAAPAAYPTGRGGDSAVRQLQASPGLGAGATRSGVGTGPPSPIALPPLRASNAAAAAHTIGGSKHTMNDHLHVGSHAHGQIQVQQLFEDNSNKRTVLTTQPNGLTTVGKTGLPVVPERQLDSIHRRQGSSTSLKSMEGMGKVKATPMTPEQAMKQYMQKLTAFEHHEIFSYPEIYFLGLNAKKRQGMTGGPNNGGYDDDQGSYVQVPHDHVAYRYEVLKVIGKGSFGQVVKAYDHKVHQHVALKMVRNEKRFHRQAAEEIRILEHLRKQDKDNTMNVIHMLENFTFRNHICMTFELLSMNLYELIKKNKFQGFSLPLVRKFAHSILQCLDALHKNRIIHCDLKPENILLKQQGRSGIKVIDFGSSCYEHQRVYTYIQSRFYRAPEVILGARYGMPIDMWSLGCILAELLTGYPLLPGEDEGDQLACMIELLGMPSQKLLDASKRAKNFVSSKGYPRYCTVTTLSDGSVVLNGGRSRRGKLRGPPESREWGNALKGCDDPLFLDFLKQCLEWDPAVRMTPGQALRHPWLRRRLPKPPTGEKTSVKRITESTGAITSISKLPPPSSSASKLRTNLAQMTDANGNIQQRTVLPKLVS

[14] = target: T11, CaMK1 (Homo sapiens, UniProt Q14012); test: Selectivity panel CaMK1; type: biochemical; conditions: 5 µM inhibitor
T11 construct: purchased Life Technologies (Invitrogen SelectScreen); Dyrk1A, Dyrk2 and CK2α in-house or gifts

[15] = target: T12, Dyrk1A (Homo sapiens, UniProt Q13627); test: Dyrk1A kinase assay (32P-ATP, Woodtide); type: biochemical; conditions: for IC50: 100 µM ATP; for inhibition at 5 µM: read-out: percentage of inhibition Dyrk1A
T12 construct: encoding the catalytic domain of human Dyrk1A; thrombin cleavage site (N); made in house; host or cells: Escherichia coli BL21(DE3) with pRARE

Chain of PIM1 (P11309 whole entry): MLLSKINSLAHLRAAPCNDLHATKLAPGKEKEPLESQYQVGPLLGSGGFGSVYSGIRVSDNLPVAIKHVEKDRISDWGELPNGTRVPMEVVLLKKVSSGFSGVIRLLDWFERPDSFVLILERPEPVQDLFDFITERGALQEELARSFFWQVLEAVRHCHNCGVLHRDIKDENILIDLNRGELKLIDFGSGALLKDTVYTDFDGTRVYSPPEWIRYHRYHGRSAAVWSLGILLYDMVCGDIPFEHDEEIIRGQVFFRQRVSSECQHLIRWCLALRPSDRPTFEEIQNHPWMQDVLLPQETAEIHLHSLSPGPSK
T1 sequence (P48730 whole entry): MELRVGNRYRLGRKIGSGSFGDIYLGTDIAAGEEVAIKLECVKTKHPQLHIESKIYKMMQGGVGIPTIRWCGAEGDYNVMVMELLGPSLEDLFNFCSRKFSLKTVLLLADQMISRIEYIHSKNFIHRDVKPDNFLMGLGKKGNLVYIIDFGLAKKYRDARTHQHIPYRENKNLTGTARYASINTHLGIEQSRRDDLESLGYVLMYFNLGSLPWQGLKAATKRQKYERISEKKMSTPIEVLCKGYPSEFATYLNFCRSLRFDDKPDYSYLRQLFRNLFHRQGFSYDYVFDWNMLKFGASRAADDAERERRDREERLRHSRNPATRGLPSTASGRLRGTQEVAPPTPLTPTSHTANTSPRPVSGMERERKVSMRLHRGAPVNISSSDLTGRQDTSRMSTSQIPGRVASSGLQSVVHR
T2 sequence (P00533 25-1210): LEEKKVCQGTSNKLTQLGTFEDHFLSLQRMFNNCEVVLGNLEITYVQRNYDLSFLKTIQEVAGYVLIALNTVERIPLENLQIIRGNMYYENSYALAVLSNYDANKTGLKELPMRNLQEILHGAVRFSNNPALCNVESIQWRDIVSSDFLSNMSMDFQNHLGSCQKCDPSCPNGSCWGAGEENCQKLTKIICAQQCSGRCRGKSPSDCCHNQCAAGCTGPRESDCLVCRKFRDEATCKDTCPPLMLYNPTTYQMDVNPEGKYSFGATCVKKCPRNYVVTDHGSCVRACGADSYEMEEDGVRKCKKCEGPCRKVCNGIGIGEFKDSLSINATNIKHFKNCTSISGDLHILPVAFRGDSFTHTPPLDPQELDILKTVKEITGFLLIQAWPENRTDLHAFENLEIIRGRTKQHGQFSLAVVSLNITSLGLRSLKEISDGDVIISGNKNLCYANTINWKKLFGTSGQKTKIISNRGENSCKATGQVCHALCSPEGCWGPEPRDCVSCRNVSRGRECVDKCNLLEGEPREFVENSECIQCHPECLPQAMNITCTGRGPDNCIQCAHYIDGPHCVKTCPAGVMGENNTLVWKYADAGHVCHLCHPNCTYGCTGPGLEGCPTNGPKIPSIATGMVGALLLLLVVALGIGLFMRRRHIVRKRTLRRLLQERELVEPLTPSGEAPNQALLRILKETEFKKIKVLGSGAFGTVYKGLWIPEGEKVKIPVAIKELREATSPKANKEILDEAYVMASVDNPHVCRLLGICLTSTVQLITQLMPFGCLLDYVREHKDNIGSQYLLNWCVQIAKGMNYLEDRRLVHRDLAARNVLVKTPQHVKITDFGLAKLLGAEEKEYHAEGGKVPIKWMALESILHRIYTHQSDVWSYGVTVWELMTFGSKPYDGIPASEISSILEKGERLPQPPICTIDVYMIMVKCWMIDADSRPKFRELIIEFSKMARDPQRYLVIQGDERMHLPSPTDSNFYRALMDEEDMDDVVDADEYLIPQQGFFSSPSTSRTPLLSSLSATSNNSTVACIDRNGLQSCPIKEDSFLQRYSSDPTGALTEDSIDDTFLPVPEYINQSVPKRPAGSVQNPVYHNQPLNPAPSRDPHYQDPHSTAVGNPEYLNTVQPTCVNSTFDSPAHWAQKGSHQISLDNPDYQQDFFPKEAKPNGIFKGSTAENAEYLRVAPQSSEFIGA
T3 sequence (Q16620 32-822): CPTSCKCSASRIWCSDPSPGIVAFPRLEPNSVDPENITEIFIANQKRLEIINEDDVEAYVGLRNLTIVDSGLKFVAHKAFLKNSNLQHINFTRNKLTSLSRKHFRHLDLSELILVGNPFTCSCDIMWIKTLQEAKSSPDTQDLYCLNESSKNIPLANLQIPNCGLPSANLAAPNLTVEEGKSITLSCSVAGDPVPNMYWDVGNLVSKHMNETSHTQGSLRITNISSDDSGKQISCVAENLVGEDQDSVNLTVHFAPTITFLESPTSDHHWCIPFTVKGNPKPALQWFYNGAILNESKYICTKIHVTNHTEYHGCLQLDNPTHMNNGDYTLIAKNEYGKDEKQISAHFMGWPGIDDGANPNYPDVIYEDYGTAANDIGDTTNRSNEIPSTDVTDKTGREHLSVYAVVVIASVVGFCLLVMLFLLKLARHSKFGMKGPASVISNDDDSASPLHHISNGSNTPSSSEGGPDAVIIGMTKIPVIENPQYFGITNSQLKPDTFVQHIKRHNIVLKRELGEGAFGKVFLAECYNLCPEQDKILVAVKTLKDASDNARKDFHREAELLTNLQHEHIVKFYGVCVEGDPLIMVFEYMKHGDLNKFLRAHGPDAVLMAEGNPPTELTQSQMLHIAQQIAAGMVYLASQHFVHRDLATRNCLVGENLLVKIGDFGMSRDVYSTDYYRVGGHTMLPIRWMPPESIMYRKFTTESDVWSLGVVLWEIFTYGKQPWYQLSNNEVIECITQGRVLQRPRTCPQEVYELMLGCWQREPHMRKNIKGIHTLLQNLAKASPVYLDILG
T11 sequence (Q14012 whole entry): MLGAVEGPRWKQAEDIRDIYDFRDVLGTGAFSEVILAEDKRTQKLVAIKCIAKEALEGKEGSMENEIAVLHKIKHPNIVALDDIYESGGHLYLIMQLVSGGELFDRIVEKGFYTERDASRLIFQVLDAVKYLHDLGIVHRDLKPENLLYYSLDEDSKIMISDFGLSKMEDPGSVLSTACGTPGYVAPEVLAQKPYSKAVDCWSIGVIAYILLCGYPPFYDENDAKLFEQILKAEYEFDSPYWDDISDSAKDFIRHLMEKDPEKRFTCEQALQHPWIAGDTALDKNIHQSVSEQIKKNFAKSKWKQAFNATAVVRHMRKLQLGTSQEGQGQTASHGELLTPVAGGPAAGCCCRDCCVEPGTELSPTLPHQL
T8 sequence (Q00535 whole entry): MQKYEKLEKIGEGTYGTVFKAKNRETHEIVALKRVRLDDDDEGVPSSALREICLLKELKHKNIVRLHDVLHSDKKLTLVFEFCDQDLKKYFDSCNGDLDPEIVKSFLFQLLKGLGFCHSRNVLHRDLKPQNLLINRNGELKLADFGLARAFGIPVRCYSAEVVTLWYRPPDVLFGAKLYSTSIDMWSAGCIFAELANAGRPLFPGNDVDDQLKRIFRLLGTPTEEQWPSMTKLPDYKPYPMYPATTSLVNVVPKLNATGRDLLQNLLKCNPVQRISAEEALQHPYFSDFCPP
T8 sequence (Q15078 whole entry partner): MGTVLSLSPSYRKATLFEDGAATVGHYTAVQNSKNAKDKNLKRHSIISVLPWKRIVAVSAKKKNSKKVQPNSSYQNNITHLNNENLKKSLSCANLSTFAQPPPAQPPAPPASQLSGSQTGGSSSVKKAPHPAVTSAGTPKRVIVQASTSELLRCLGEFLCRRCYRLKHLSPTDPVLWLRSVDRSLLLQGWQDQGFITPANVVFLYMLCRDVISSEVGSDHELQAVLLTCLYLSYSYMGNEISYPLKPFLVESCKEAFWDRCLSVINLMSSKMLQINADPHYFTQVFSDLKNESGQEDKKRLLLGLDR
T9 sequence (Q86Z02 whole entry): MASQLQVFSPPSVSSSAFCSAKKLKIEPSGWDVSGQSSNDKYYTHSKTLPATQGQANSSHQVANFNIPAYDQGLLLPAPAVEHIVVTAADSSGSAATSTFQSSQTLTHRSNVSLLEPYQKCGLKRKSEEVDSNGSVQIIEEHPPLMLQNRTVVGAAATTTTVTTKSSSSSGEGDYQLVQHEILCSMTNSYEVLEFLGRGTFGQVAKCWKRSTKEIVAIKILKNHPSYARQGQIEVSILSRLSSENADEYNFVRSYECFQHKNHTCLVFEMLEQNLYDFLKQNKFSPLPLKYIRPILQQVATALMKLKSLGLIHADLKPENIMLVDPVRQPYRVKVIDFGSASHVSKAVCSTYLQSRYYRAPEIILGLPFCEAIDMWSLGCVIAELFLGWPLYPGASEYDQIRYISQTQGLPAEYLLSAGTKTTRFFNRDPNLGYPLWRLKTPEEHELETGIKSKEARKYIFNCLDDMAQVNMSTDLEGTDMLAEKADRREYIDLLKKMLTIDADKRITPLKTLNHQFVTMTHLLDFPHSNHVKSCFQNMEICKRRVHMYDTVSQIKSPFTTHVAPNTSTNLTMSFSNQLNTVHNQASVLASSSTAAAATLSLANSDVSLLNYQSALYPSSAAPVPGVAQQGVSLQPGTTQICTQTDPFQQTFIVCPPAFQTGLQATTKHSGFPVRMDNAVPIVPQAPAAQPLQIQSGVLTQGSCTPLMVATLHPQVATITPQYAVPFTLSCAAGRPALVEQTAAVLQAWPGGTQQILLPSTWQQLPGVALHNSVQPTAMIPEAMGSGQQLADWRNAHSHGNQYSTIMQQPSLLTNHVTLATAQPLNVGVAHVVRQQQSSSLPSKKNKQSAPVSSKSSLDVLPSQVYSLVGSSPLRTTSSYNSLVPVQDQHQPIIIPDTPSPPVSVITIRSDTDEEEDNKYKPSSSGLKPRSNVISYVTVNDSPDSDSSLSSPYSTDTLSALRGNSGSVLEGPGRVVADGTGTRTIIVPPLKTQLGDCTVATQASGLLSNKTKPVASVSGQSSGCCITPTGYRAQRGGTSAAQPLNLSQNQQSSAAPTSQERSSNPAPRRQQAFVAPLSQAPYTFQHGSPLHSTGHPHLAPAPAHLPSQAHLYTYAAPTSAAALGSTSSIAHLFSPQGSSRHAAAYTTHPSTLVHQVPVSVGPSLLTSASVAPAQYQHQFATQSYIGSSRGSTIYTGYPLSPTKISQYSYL

SMILES | inhibition at 5 µM [1] [%] | inhibition at 5 µM [2] [%] | inhibition at 5 µM [3] [%] | inhibition at 5 µM [4] [%] | inhibition at 5 µM [5] [%] | inhibition at 5 µM [6] [%] | inhibition at 5 µM [7] [%] | inhibition at 5 µM [10] [%] | inhibition at 5 µM [11] [%] | inhibition at 5 µM [12] [%] | IC50 [13] | inhibition at 5 µM [13] [%] | inhibition at 5 µM [14] [%] | melting point [°C] | IC50 [2] [nM] | IC50 [9] [nM] | inhibition at 5 µM ([9]; at 5 µM) [%] | IC50 [15] | CLhep predicted at 0.5 µM [8] [mL/min/kg] | half-life at 0.5 µM [8] [min] | further results
c1cncc(-c2cc(-c3cncs3)cs2)c1 [Compound 29, 3-[4-(1,3-thiazol-5-yl)thiophen-2-yl]pyridine] | 0 | 22 | 0 | 24 | 12 | 0 | 0 | 0 | 39 | 4 | 400 nM and 430 nM | 93 | 8 | 114 to 115 |  |  |  |  | 49 | 27 | inhibition at 5 µM [9]: 96%
Cn1cc(-c2csc(-c3cccnc3)c2)cn1 [Compound 30, 3-[4-(1-methyl-1H-pyrazol-4-yl)thiophen-2-yl]pyridine] | -1 | 52 | 5 | -5 | 17 | 17 | -10 | 4 | 33 | 8 | 200 nM and 190 nM | 100 | 17 | 119 to 120 | ~5000 | 160 | 92 |  | 34 | 53 | 
c1cncc(-c2csc(-c3cncs3)c2)c1 [Compound 48, 3-[5-(1,3-thiazol-5-yl)thiophen-3-yl]pyridine] | 1 | 51 | 15 | 0 | 31 | 25 | 9 | 0 | 44 | 9 | 40 nM | 100 | 5 | 69 to 70 | ~5000 | 110 | 94 | 100 nM | 47 | 31 | inhibition at 5 µM [15]: 97%; Kd ([15]; calculated with Cheng-Prussoff equation, KM ATP 64 µM): 39 nM

More lines, main results first:

inhibition at 5 µM [1] [%] | inhibition at 5 µM [2] [%] | inhibition at 5 µM [3] [%] | inhibition at 5 µM [4] [%] | inhibition at 5 µM [5] [%] | inhibition at 5 µM [6] [%] | inhibition at 5 µM [7] [%] | inhibition at 5 µM [10] [%] | inhibition at 5 µM [11] [%] | inhibition at 5 µM [12] [%] | IC50 [13] | inhibition at 5 µM [13] [%] | inhibition at 5 µM [14] [%] | melting point [°C] | IC50 [2] [nM] | IC50 [9] [nM] | inhibition at 5 µM ([9]; at 5 µM) [%] | IC50 [15] | SMILES | CLhep predicted at 0.5 µM [8] [mL/min/kg] | half-life at 0.5 µM [8] [min] | further results
0 | 51 | 0 | 23 | 5 | 10 | 0 | 2 | 23 | 7 | 1340 nM and 1300 nM | 77 | 12 | 86 to 87 | ~5000 | 420 | 88 | 800 nM and 810 nM | c1cncc(-c2csc(-c3cnco3)c2)c1 [Compound 33, 3-[5-(1,3-oxazol-5-yl)thiophen-3-yl]pyridine] |  |  | inhibition at 5 µM [15]: 84%
0 | 14 | 4 | 22 | 5 | 14 | 2 | 0 | 14 | 9 | 3500 nM and 3400 nM | 57 | 0 | 173 to 174 |  | 610 | 86 | 900 nM and 880 nM | c1cncc(-c2csc(-c3cncnc3)c2)c1 [Compound 41, 5-[4-(pyridin-3-yl)thiophen-2-yl]pyrimidine] |  |  | inhibition at 5 µM [15]: 85%
